Eleven molecules from PMC10708259 (Molecules, 2023) can be followed below.

In series [1] the target is T1, human μ-opioid receptor (OPRM1) (Homo sapiens, UniProt P35372).
T1 construct: host or cells: cAMP Hunter CHO-K1
Description: cell-based. The format is cell-based. As to conditions: for EC50: MOR Agonist EC50 ± SEM; for Emax: read-out: MOR Agonist %Emax ± SEM.

For series [2], the target named is T2, human δ-opioid receptor (OPRD1) (Homo sapiens, UniProt P41143). Description: Forskolin-induced cAMP accumulation assay, DOR agonist mode. As to conditions: for Emax: CHO-K1, read-out: DOR Agonist %Emax ± SEM. A general note: Changes in cAMP serve as a functional read-out for many G protein-coupled receptors.
T2 sequence (P41143 whole entry): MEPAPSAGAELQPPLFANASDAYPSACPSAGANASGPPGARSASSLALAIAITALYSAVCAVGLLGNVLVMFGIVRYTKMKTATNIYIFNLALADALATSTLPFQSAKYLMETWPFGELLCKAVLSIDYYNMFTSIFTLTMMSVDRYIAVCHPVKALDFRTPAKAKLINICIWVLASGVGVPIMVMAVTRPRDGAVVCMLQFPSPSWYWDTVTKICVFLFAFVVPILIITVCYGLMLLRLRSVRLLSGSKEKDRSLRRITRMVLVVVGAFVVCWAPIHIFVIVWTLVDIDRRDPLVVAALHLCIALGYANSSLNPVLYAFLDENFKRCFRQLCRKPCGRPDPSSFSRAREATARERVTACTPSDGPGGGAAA
Series [3] deals with T3, human κ-opioid receptor (OPRK1) (Homo sapiens, UniProt P41145). In words: Forskolin-induced cAMP accumulation assay, KOR agonist mode. Conditions: for Emax: CHO-K1, read-out: KOR Agonist %Emax ± SEM.
T3 sequence (P41145 whole entry): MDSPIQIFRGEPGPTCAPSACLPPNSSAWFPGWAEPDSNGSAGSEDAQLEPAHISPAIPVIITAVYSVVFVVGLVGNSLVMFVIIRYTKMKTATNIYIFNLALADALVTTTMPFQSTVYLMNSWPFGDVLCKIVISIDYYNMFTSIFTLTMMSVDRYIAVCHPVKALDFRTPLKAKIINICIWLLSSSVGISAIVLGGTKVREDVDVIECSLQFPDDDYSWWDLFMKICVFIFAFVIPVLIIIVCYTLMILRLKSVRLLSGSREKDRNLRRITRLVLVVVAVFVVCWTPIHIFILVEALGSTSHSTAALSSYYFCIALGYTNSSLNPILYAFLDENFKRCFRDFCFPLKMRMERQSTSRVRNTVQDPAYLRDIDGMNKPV
For series [4], the target named is T3, human κ-opioid receptor (OPRK1). In words: Forskolin-induced cAMP accumulation assay, KOR antagonist mode. Conditions: for KOR Antagonist %Imax ± SEM: versus EC90 of U50488H, Imax normalized to nor-BNI.
Series [5] has as its target T2, human δ-opioid receptor (OPRD1). In words: Forskolin-induced cAMP accumulation assay, DOR antagonist mode.

Structures can show the parent of a compound that is named as a salt.

T1 sequence (P35372 whole entry): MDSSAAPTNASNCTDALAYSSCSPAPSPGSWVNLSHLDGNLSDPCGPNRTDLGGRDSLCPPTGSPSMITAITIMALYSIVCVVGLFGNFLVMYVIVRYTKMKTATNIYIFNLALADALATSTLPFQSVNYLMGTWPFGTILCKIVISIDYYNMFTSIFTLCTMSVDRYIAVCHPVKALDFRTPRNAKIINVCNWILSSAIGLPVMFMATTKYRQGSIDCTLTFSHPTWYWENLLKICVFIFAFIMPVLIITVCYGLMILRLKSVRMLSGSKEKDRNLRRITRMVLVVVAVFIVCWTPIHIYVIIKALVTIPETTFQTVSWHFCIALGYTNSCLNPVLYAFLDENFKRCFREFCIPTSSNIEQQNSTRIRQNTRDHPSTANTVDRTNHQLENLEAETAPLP

With `CC1C2Cc3ccc(O)cc3C1(C)CCN2CCc1ccc([N+](=O)[O-])cc1` (as salt: HCl) [Compound 3, (1R,5R,9R)-6,11-Dimethyl-3-(4-nitrophenethyl)-1,2,3,4,5,6-hexahydro-2,6-methanobenzo[d]azocin-8-ol], the melting point is 273 to 274 °C (dec.).
On to `CC1c2ccc(O)cc2[C@]2(C)CCN(CCc3ccccc3)[C@H]1[C@@H]2C` (single isomer, unassigned; (-)) [(−)-39], for which the EC50 in series [1] is 1.2 nM; in series [2], 12.6 ± 3.9 nM; in series [3] it was 20.7 ± 6.1 nM. Besides, the values for the Emax in series [1], in series [2] and in series [3] were 102%, 91% and 38%, respectively. The molecule also yielded an IC50 in series [4] of 731 ± 362 nM. For the same molecule, in series [4], the “KOR Antagonist %Imax ± SEM” value was found to be 57 ± 5%.
Take `CC1C2Cc3ccc(O)cc3C1(C)CCN2CCc1ccccc1[N+](=O)[O-]` [Compound 5, (1R,5R,9R)-6,11-Dimethyl-3-(2-nitrophenethyl)-1,2,3,4,5,6-hexahydro-2,6-methanobenzo[d]azocin-8-ol]: in series [1], the concentration for a half-maximal effect (EC50) worked out at 2.7 nM and the Emax was 101%. Moreover, in series [2], it took 37 ± 6 nM to reach a half-maximal effect (EC50) and the Emax is 73%. Also, in series [3], the EC50 worked out at 16 ± 4 nM and the Emax is 23%. Moreover, in series [4], the IC50 came to 717 ± 132 nM and the “KOR Antagonist %Imax ± SEM” value came to 89 ± 5%.
For `C[C@H]1[C@H]2Cc3ccc(O)cc3[C@]1(C)CCN2CCc1ccc(F)cc1` [Compound 6, (2R,6R,11R)-6,11-Dimethyl-3-(4-fluorophenethyl)-1,2,3,4,5,6-hexahydro-2,6-methanobenzo[d]azocin-8-ol], in series [1], the EC50 was 1.8 nM and the Emax is 100%. Further, in series [2], a half-maximal response (EC50) required 12 ± 3 nM and the Emax was 73%. Moreover, in series [3], the EC50 worked out at 7 ± 3 nM and the Emax was 34%. For the same molecule, in series [4], 368 ± 92 nM corresponded to half-maximal inhibition (IC50) and the “KOR Antagonist %Imax ± SEM” value is given as 71 ± 2%.
Regarding `CC1C2Cc3ccc(O)cc3C1(C)CCN2CCc1cccc(F)c1` [Compound 7, (1R,5R,9R)-6,11-Dimethyl-3-(3-fluorophenethyl)-1,2,3,4,5,6-hexahydro-2,6-methanobenzo[d]azocin-8-ol], in series [1], the EC50 was found to be 0.6 nM and the maximal response (Emax) is 100%. In series [2], the EC50 turned out to be 11 ± 4 nM and the Emax is 86%. In series [3], this molecule had an EC50 of more than 10000 nM. For the same molecule, in series [4], the IC50 is 274 ± 83 nM and the “KOR Antagonist %Imax ± SEM” value worked out at 87 ± 2%.
For the molecule `CC1C2Cc3ccc(O)cc3C1(C)CCN2CCc1cccc(Br)c1` [Compound 13, (1R,5R,9R)-6,11-Dimethyl-3-(3-bromophenethyl)-1,2,3,4,5,6-hexahydro-2,6-methanobenzo[d]azocin-8-ol], the EC50 in series [1] is 18 nM; in series [2], 110 ± 24 nM; in series [3] it was more than 10000 nM. Also, the Emax is 78% in series [1] and 51% in series [2]. This molecule returned an IC50 in series [4] of 90 ± 37 nM. In series [4], the “KOR Antagonist %Imax ± SEM” value is listed as 99 ± 2%.
For the molecule `CC1C2Cc3ccc(O)cc3C1(C)CCN2CCc1cccc(Cl)c1` [Compound 16, (1R,5R,9R)-6,11-Dimethyl-3-(3-chlorophenethyl)-1,2,3,4,5,6-hexahydro-2,6-methanobenzo[d]azocin-8-ol], in series [1], the EC50 turned out to be 13 nM and the Emax was 95%. Further, in series [2], a half-maximal effect (EC50) was put at 93 ± 25 nM and the Emax was 64%. Also, the EC50 in series [3] is more than 10000 nM. For the same molecule, in series [4], the IC50 came to 111 ± 43 nM and the “KOR Antagonist %Imax ± SEM” value is given as 108 ± 10%.
Take `CC1C2Cc3ccc(O)cc3C1(C)CCN2CCc1c(Cl)cccc1Cl` [Compound 22, (1R,5R,9R)-6,11-Dimethyl-3-(2,6-dichlorophenethyl)-1,2,3,4,5,6-hexahydro-2,6-methanobenzo[d]azocin-8-ol]: in series [1], the response was half-maximal at 4 nM (EC50) and the Emax was 99%. In series [2], the 50% effective concentration (EC50) was found to be 59 ± 25 nM and the Emax was 78%. Further, the EC50 in series [3] was more than 10000 nM. For the same molecule, in series [4], the IC50 was 65 ± 24 nM and the “KOR Antagonist %Imax ± SEM” value stood at 87 ± 7%.
On to `CC1C2Cc3ccc(O)cc3C1(C)CCN2CCc1ccccc1` [Compound 23, (1R,5R,9R)-6,11-Dimethyl-3-(phenethyl)-1,2,3,4,5,6-hexahydro-2,6-methanobenzo[d]azocin-8-ol], for which the EC50 was 0.27 nM in series [1], 4 ± 1 nM in series [2] and 3.4 ± 0.4 nM in series [3]. In addition, the Emax in series [1] was 101%; in series [2], 85%; in series [3] it was 25%. In addition, in series [4], the IC50 stood at 281 ± 94 nM. Further, the “KOR Antagonist %Imax ± SEM” value in series [4] was 81 ± 5%.
On to `C[C@H]1[C@H]2Cc3ccc(O)cc3[C@]1(C)CCN2CCc1c[nH]c2ccccc12` [Compound 26, (1R,5R,9R)-3-(2-(1H-Indol-3-yl)ethyl)-6,11-dimethyl-1,2,3,4,5,6-hexahydro-2,6-methanobenzo[d]azocin-8-ol], for which the EC50 is 12 nM in series [1], 343 ± 35 nM in series [2] and more than 10000 nM in series [3]. Besides, the values for the Emax in series [1] and in series [2] were 102% and 91%, respectively. Besides, the IC50 in series [4] is more than 10000 nM.
Consider `C[C@H]1[C@H]2Cc3ccc(O)cc3[C@]1(C)CCN2CCC1CCN(C)CC1` [Compound 28, (1R,5R,9R)-6,11-Dimethyl-3-(2-(1-methylpiperidin-4-yl)ethyl)-1,2,3,4,5,6-hexahydro-2,6-methanobenzo[d]azocin-8-ol], for which the “MOR agonist potency / efficacy in words” value in series [1] was “little or no potency”. The EC50 in series [1] is more than 10000 nM; in series [2], more than 10000 nM; in series [3] it was 0.05 ± 0.02 nM. Besides, in series [3], the Emax is 15%. Besides, the IC50 in series [5] and in series [4] was more than 10000 nM each time.

What is called melting point is the temperature, or range, at which the solid turns liquid. What is called EC50 is the concentration at which the effect is half-maximal. Low values mean an effect from little substance, high ones a need for much substance. What is called Emax is the maximal effect, on the per cent scale that the assay sets. Usually IC50 stands for the concentration that inhibits the measured activity by half.
